Source: paper PMC7077720, “Improvement of Peptide Affinity and Stability by Complexing to Cyclodextrin-Grafted Ammonium Chitosan” (Polymers, 2020)
Where a SMILES comes first, the peptide text is derived from it. [ ]: non-standard residue; d: D form.

How the values were obtained:
[1] = Complex association constant (Benesi–Hildebrand method), fluorescence spectrometry; type: binding; details: rounded value quoted in text; technique not named at the place
Method: Complex association constant (Ka) was determined by spectrometric titration based on the Benesi–Hildebrand method and performed both by UV-VIS and fluorescence spectrometry. Two sets of dilutions were prepared (Tables S2–S5, Supplementary material). In the case of UV spectrometry, 275 μM DAL was kept, whereas MCD concentrations varied, either as MCD alone or as conjugated (N^+-rCh-MCD). The solutions were prepared and analyzed after being equilibrated for 1 h at room temperature. UV spectra in the range 220–325 nm were collected, and the intensity of absorbance at 282 nm was normalized on the correspondent value at 247 nm. Diversely, for fluorescence spectroscopy evaluations, DAL concentration was kept at 70 μM, and samples were analyzed by using a PerkinElmer LS 45 fluorimeter, with excitation λ set at 270 nm and the emission spectrum collected between 340 and 270 nm. The variation of fluorescence intensity was evaluated at 304 nm, and it was normalized on 285 nm. […]
The determination of the association constant (Ka) for complexes of DAL/MCD and of DAL/N^+-rCh-MCD was performed both by UV and fluorescence spectrometry. Both techniques exploited the gradual variation of DAL absorbance or fluorescence in the presence of increasing amounts of host agent. […]

Caco-2 monolayers = experiment: In vitro protection from enzymatic degradation on Caco-2 monolayers; type: in vitro ADME, human; details: DAL 50 μg/mL applied apically in HBSS, 37 °C, HPLC, three experiments
Method: A Caco-2 monolayer was obtained by cell seeding (10^5 cells/well) on a polycarbonate membrane filter (pore size 0.4 μm, area 1.12 cm^2) in Corning Transwell, 12-well plates (Sigma-Aldrich, Saint Louis, MO, USA). Thereafter, 0.5 and 1.5 mL of culture medium was added to apical and basolateral compartments of the transwell inserts, respectively; the culture medium was replaced every two days for 24 days. As a rule, the experiments were performed with Caco-2 monolayers that have been grown on filter inserts for 21–29 days. By day 21, the monolayers have become differentiated with regard to the expression of many transport proteins, enzymes, and brush border hydrolases. The TransEpithelial Electrical Resistance (TEER, Ωcm^2) across the Caco-2 monolayer was determined by measuring the potential difference between the apical and basolateral sides of the transwell using the Millicell-ERS (Millipore, Milano, Italy). TEER was measured prior to each experiment to ensure the confluence of the monolayers, during transport studies (every 30 min), and at 24 h from the samples’ removal to assess monolayer stability recovery. Experiments were performed by using DAL-containing samples, which had either DAL alone or the presence of polymers and cyclodextrin. […] At the end of the experiment (3 h), the apical chambers media were collected and analyzed by HPLC for DAL content evaluation.

α-chymotrypsin (CHT) [2] = biological target: T1, α-chymotrypsin (CHT) (Bos taurus, UniProt P00766); experiment: Stability under enzymatic hydrolysis by α-chymotrypsin, residual DAL by HPLC; type: in vitro ADME; details: 37 °C
T1 construct: purchased Sigma-Aldrich (St. Louis, MO, USA)
Method: GPC (Gel permeation chromatography) and HPLC analyses were carried out with a Perkin-Elmer instrument (Perkin-Elmer, Waltham, MA, USA), consisting of a Series 200 LC-290 AT pump, Rheodyne injector with a loop of 20 μL, UV-VIS SPD–6 AV detector, and Turbochrom Navigator software (Turbochrom 6.1, Perkin-Elmer, Waltham, MA, USA ). For GPC analyses, the standard pullulans were employed; the stationary phase was an X-stream H2O Mixed Bed 50 × 4.6 mm column, the mobile phase was acetate buffer 0.5 M (pH = 2.9), and the wavelength of the detector was set to 237 nm. For HPLC, the suitable mobile phase result was H2O:CH3CN = 70:30, the column was a C18 Aquapore OD-300 (Perkin-Elmer, Waltham, MA, USA) 7 µm 4.6 × 250 mm, and the wavelength of the detector was set to 227 nm.
Stock solutions of dalargin (1 mg/mL) either alone or as a 1:1 complex with MCD or polymers were mixed with α-chymotrypsin (0.36 mg/mL) solutions to obtain 0.50 mg/mL and 0.18 mg/mL (corresponding to 7.2 UI/mL) final concentrations, respectively. […] All samples were analyzed after 5 min by interrupting the digestion with temperature shock (4 °C) and extensive dilution (1:20 with cold HPLC mobile phase). Residual DAL was expressed as the percentage of initial DAL as detected by the HPLC method. […]

α-chymotrypsin (CHT) [3] = biological target: T1, α-chymotrypsin (CHT); experiment: Enzymatic hydrolysis of DAL by α-chymotrypsin followed by 1H NMR; type: in vitro ADME
Method: The same DAL/enzyme ratio and concentrations of components selected for HPLC were used in NMR analysis at 37 °C through the entire digestion process. DAL and α-chymotrypsin stock solutions were prepared in phosphate buffer (pH = 6.8) and mixed directly into the NMR tube containing predissolved polymers at 40 °C for 2 h.
By using the same DAL/CHT molar ratio selected for HPLC analysis, low and high frequency NMR spectral regions of dalargin, pure (Figure 7a) and in presence of CHT (Figure 7b, c), were monitored over time at 37 °C. In the binary mixture DAL/CHT, a rapid decrease of the original dalargin signals was observed already after 5 min with the simultaneous formation of new peaks, which was attributable to the digestion products. […] In order to obtain a quantitative parameter, we refer to the lifetime of the drug (tf), the specific time in which non-degraded DAL reached 6% with respect to the hydrolyzed products. If the mixture is maintained at room temperature (25 °C), the tf of DAL is extended up to 45 min, owing to a reduced activity of the enzyme.

[4] = Stability of pure DAL in water by 1H NMR; type: physicochemical; details: 37 °C, several days, 1H NMR chemical shifts and integrated areas

Compound	Association constant of DAL with host (Ka) [1] [M⁻¹]	DAL content in the apical chamber after 3 h of incubation (Caco-2 monolayers; Caco-2 monolayers (Transwell, 21–29 days)) [µg/mL]	residual DAL in the apical chamber after 3 h of incubation (Caco-2 monolayers; Caco-2 monolayers)	reduction of the initial DAL content after 5 min of α-chymotrypsin (α-chymotrypsin (CHT) [2]; freshly prepared solutions, DAL 0.50 mg/mL alone or 1:1 with host, CHT 0.18 mg/mL (7.2 UI/mL), phosphate buffer pH 6.8, 0.4 M, HPLC-UV 227 nm, three independent experiments) [%]	stability of DAL to α-chymotrypsin, lyophilized samples redispersed in buffer (α-chymotrypsin (CHT) [2]; lyophilized DAL alone or 1:1 complex redispersed in PB, CHT 0.18 mg/mL, pH 6.8, 5 min, HPLC)	lifetime of the drug tf at room temperature (α-chymotrypsin (CHT) [3]; DAL/CHT mixture kept at 25 °C, tf = time at which non-degraded DAL reached 6%, 1H NMR) [min]	time after which digestion was almost complete (α-chymotrypsin (CHT) [3]; binary mixture DAL/CHT, no host, 1H NMR integrated areas, 37 °C, phosphate buffer pH 6.8, DAL 0.68 mM) [min]	stability of pure DAL in water [4]
2-methyl-β-cyclodextrin [MCD]	120							
CC(C)C[C@H](NC(=O)[C@H](Cc1ccccc1)NC(=O)CNC(=O)[C@@H](C)NC(=O)[C@@H](N)Cc1ccc(O)cc1)C(=O)N[C@@H](CCCNC(=N)N)C(=O)O [DAL, (D-Ala2)-Leu-Enkephalin-Arg] (H-Y[dA]GFLR-OH)		4.1 to 7.3	8%–15%	80	rapidly degraded	45	14	stable
